BindingDB's records for doi:10.1021/jm00015a023 (Research Triangle Institute, 1995)

Key:
[1] = Binding affinity was measured on Sigma receptor type 1 using [3H]- pentazocine as radioligand
[2] = Binding affinity was measured on Sigma receptor type 2 using [3H]- DTG as radioligand
[3] = molecular target: Sigma non-opioid intracellular receptor 1 (Homo sapiens, UniProt Q99720); test: Binding affinity was measured on Sigma receptor type 1 using [3H]- pentazocine as radioligand
[4] = Binding affinity was measured on Sigma receptor type 1 using [3H]- pentazocine as radioligand; remark: listed apart in the source

Sequence of Sigma non-opioid intracellular receptor 1 (Q99720 whole entry): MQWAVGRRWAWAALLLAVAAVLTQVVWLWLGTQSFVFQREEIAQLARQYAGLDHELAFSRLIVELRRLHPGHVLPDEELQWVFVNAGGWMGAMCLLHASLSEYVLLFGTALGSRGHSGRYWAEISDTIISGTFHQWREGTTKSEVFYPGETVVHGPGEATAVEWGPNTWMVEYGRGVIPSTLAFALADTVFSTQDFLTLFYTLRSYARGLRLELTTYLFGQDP

| SMILES | Ki [1] | Ki [2] | Ki [3] | Ki [4] |
| --- | --- | --- | --- | --- |
| CC1C2Cc3cc(Cl)c(O)c(Cl)c3C1(C)CCN2Cc1ccccc1 (stereo not given) [3-Benzyl-7,9-dichloro-6,11-dimethyl-1,2,3,4,5,6-hexahydro-2,6-methano-benzo[d]azocin-8-ol] | 71.5 nM | 2170 nM | – | – |
| CC1C2Cc3ccc(O)c(Br)c3C1(C)CCN2Cc1ccccc1 (stereo not given) [3-Benzyl-7-bromo-6,11-dimethyl-1,2,3,4,5,6-hexahydro-2,6-methano-benzo[d]azocin-8-ol] | 1.75 nM | 346 nM | – | – |
| CC1C2Cc3cc(Br)c(O)cc3C1(C)CCN2Cc1ccccc1 (stereo not given) [3-Benzyl-9-bromo-6,11-dimethyl-1,2,3,4,5,6-hexahydro-2,6-methano-benzo[d]azocin-8-ol] | 68.6 nM | 1220 nM | – | – |
| CC(C)=CCN1CCC2(C)c3cc(O)c(Br)cc3CC1C2C (stereo not given) [9-Bromo-6,11-dimethyl-3-(3-methyl-but-2-enyl)-1,2,3,4,5,6-hexahydro-2,6-methano-benzo[d]azocin-8-ol] | – | – | 144 nM | – |
| CC1C2Cc3cc(I)c(O)cc3C1(C)CCN2Cc1ccccc1 (stereo not given) [3-Benzyl-9-iodo-6,11-dimethyl-1,2,3,4,5,6-hexahydro-2,6-methano-benzo[d]azocin-8-ol] | 231 nM | 597 nM | – | – |
| CC(C)=CCN1CCC2(C)c3cc(O)c(I)cc3CC1C2C (stereo not given) [9-Iodo-6,11-dimethyl-3-(3-methyl-but-2-enyl)-1,2,3,4,5,6-hexahydro-2,6-methano-benzo[d]azocin-8-ol] | – | – | 35.2 nM | – |
| CC1C2Cc3ccc(O)c(Cl)c3C1(C)CCN2Cc1ccccc1 (stereo not given) [3-Benzyl-7-chloro-6,11-dimethyl-1,2,3,4,5,6-hexahydro-2,6-methano-benzo[d]azocin-8-ol] | 1.72 nM | 764 nM | – | – |
| CC(C)=CCN1CCC2(C)c3c(ccc(O)c3Cl)CC1C2C (stereo not given) [7-Chloro-6,11-dimethyl-3-(3-methyl-but-2-enyl)-1,2,3,4,5,6-hexahydro-2,6-methano-benzo[d]azocin-8-ol] | 2.62 nM | 4960 nM | – | – |
| CC(C)=CCN1CCC2(C)c3c(ccc(O)c3Br)CC1C2C (stereo not given) [7-Bromo-6,11-dimethyl-3-(3-methyl-but-2-enyl)-1,2,3,4,5,6-hexahydro-2,6-methano-benzo[d]azocin-8-ol] | 2.49 nM | 283 nM | – | – |
| CC1C2Cc3cc(Br)c(O)c(Br)c3C1(C)CCN2Cc1ccccc1 (stereo not given) [3-Benzyl-7,9-dibromo-6,11-dimethyl-1,2,3,4,5,6-hexahydro-2,6-methano-benzo[d]azocin-8-ol] | – | 2010 nM | – | 70.6 nM |
| CC(C)=CCN1CCC2(C)c3c(cc(Br)c(O)c3Br)CC1C2C (stereo not given) [7,9-Dibromo-6,11-dimethyl-3-(3-methyl-but-2-enyl)-1,2,3,4,5,6-hexahydro-2,6-methano-benzo[d]azocin-8-ol] | 120 nM | 211 nM | – | – |
